# In patent US20250011878A1, “METHOD TO DETECT RNA BIOMARKERS” (ITALFARMACO SPA, priority 2021, published 2025):
# Key:
# PBMC = test: Quantitative real-time PCR gene modulation in PBMC; assay type: cell-based, human; details: PBMC treated with 1 μM ITF3756, 4 hours; qPCR vs vehicle-treated cells
# Procedure: The gene expression has been determined by comparing the expression of the above genes in the treated cells versus vehicle-treated cells. PBMC were resuspended in RPMI 1640 medium (Dutch modified, ThermoFisher) at the density of 1×10^6 cells/ml. Cells were plated in 6-well plates (Corning), 3 ml per well. Cells were treated with […] at four concentrations: 0.25, 0.5, 1 and 2 μM. Each treatment concentration was replicated in 3 wells for experimental triplicate test. Vehicle (DMSO 0.05%) treated cells were plated at the same density and volumes. Plates were incubated for 4 hours at 37° C. 5% C02. At the end of treatment incubation cells were collected for total RNA extraction. After treatment with the test compound, PBMC were withdrawn from 6-well plates and collected in 15 ml tubes (Falcon). Wells were washed once with 1 ml of PBS pH 7.4 (ThermoFisher) and the wash volume was added to the collected cell suspensions. […] RNA concentration was determined using Nano Drop 1000 spectrophotometer. […] 3 μl of cDNA corresponding to 40 ng of template were added to PCR reaction reagent for a total volume of 15 μl as shown below: The level of mRNA expression modulation was evaluated comparing the mRNA level in treated versus not-treated samples; all data were normalized versus the average expression signal of three housekeeping genes (reference genes: UBC, B2M and HPRT1) in the corresponding samples. […]
# [1] = tested on: tumor microenvironment of CT26-bearing animals; test: Ex-vivo RNAseq gene expression in tumor microenvironment of CT26-bearing mice, responders vs non responders; set-up: species or system BALB/c mice; details: RNAseq total counts
# Procedure: Adult BALB/c mice were injected s.c. with 1×10^6 CT26 tumor cells (diluted to 100 μl with phosphate buffered saline) and treated with anti-PD1 or ITF3756 when the tumor volume reached 75-100 mm^3, to explore the modulation of genes in the tumor microenvironment by RNAseq. Since ITF3756 acts on the PD-1/PD-L1 axis, this approach allows the identification of genes specific and common to both treatments. The overall schedule is described in Table 9.
# RNA was extracted from flash frozen tumors using the Qiagen extraction kit and stored at −80° C. A paired-end sequencing was chosen, in which short reads are obtained from ends of DNA fragments for ultra-high-throughput sequencing. Prior to further analysis, a quality check was performed on the sequencing data. All samples contain sequences 75 nucleotides long (75 nt×2).
# The RNA-Seq analysis pipeline involved several steps: • 1. Quality Control of the reads, • 2. Removal of low quality reads • 3. Reads spliced Alignment • 4. Transcriptome expression quantification analysis
# The sample was mapped on reference Mus musculus genome (mm10) using the bioinformatics tool STAR (version 2.4.0d), with the standard parameters for paired reads. The reference track was the assembly mm10 obtained from Refseq. […] Average mapping ratio was above 93% and Ribosomal content was below 1% for all samples.
# The quantification of transcripts expressed for each sequenced sample was performed using Cufflinks. The units of measurement used in Cufflinks is FPKM (Fragments Per Kilobase of transcript per Million mapped reads) and it is meant to be a measure of relative abundance of a transcript/gene in a RNA pool. It is not intended to be used directly for Differential Expression but it is meant to be human readable, and takes into account main technical confounding factors such as millions of reads and gene length.
# Responders and non-responders were selected based on tumor volume at day 20. […]
# Statistical significance was determined by unpaired t-test using GraphPad software (version 9), p-values […] were considered significant.
# PD-L1 = PD-L1 surface expression on human monocytes stimulated with TNF-α; assay type: cell-based
smiles,measurement,setting,value
"O=C(NO)c1ccc(Cn2nnnc2-c2cccs2)cc1 [ITF3756, N-hydroxy-4-((5-(thiophen-2-yl)-1 H-tetrazol-1-yl)methyl)benzamide]",IRF6 gene modulation,PBMC,upregulation
same,STAB1 gene modulation,PBMC,downmodulation
same,"IRF6 expression in the tumor microenvironment, responders compared to non responders",[1]; p<0.1,striking expression upregulation
same,"CD40 expression in the tumor microenvironment, responders compared to non-responder mice",[1]; unpaired t-test,statistically significant upregulation
same,"MMP9 expression in the tumor microenvironment, responders compared to non responders",[1]; unpaired t-test,statistically significant reduction
same,surface expression of PD-L1 (upregulation by TNF-α),PD-L1,inhibited
